Experimental data as given in patent publication US20180353501A1 (Arvinas, Inc., priority 2017, published 2018).

Target: T1, VHL (GST-VBC) (Homo sapiens, UniProt P40337)
T1 construct: made in house; host or cells: E. coli BL21(DE3)
Assay: SPR binary affinity, PROTAC on immobilized GST-VBC
Assay type: binding
Method: FIGS. 16A, 16B, and 16C. SPR curves assessing binary and ternary interactions. […] (C) SPR kinetic evaluation of p38δ:compound 46:VHL and p38δ:compound 50:VHL ternary complex interactions. Equimolar p38δ:PROTAC mixtures were injected onto immobilized GST-VBC and allowed to dissociate overtime. […] See Table 12 for a summary of the binary and ternary affinity and kinetic measurements.
Next, with the same setup, equimolar p38δ:PROTAC dilutions were successively injected onto immobilized VHL for 60 seconds, prior to monitoring complex dissociation for the remaining 300 seconds. […]
For the expression of GST-tagged VHL:Elongin B:Elongin C (herein referred to as GST-VHL), wild-type human VHL, Elongin B, and Elongin C were co-expressed in E. coli. […] Eluted protein was assessed for identity and purity via coomassie staining of sample run on an SDS-PAGE gel and pure elutions were pooled, concentrated, and diluted in ion-exchange buffer A (30 mM Tris pH 8.0, 5% glycerol, 1 mM DTT) until the salt concentration was 50 mM, before loading onto a Mono Q 5/50 GL column (GE Life Sciences). […] Fractions were then assessed for purity via coomassie, pooled, concentrated, and run on a Superdex-200 column (GE Life Sciences) using size-exclusion buffer (30 mM Tris pH 8.0, 100 mM NaCl, 10% glycerol, 1 mM DTT). […]

T1 sequence (P40337 whole entry): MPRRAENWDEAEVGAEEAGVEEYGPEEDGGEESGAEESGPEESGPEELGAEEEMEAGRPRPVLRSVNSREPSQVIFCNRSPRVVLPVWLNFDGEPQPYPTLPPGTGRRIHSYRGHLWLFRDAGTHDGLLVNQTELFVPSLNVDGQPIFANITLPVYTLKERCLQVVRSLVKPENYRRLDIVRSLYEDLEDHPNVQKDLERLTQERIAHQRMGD
T1 sequence (Q15370 whole entry partner): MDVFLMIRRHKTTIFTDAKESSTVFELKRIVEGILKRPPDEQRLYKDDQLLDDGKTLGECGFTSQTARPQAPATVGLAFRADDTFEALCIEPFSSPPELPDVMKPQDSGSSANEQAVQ
T1 sequence (Q15369 whole entry partner): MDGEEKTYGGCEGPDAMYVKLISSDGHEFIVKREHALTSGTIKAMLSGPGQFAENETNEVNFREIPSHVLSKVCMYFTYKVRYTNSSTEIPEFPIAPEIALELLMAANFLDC

SMILES: COc1cc2c(Oc3ccc(NC(=O)C4(C(=O)Nc5ccc(F)cc5)CC4)cc3F)ccnc2cc1OCCOCCOCCOc1cc(-c2scnc2C)ccc1CNC(=O)[C@@H]1C[C@@H](O)CN1C(=O)[C@H](C(C)C)N1Cc2ccccc2C1=O [compound 46]
- Kd: 3.5 µM

SMILES: COc1cc2c(Oc3ccc(NC(=O)C4(C(=O)Nc5ccc(F)cc5)CC4)cc3F)ccnc2cc1OCCCCOCCCCOCC(=O)N[C@H](C(=O)N1C[C@H](O)C[C@H]1C(=O)NCc1ccc(-c2scnc2C)cc1)C(C)(C)C [compound 50, N-(3-fluoro-4-((7-(4-(4-(2-(((S)-1-((2S,4R)-4-hydroxy-2-((4-(4-methylthiazol-5-yl)benzyl)carbamoyl)pyrrolidin-1-yl)-3,3-dimethyl-1-oxobutan-2-yl)amino)-2-oxoethoxy)butoxy)buto-xy)-6-methoxyquinolin-4-yl)oxy)phenyl)-N-(4-fluorophenyl)cyclopropane-1,1-dicarboxa-mide]
- Kd: 5 µM
